Laboratory results reported in patent publication US12144792B2, “Therapeutic agents for neurodegenerative diseases” (priority 2016, dated 2024).

Key:
[1] = tested on: Mucolipidosis Type II (MLII) patient fibroblasts; test: Lysosomal volume via LysoTracker; format: cell-based, human; settings: 1 mM, 6 days, vs untreated
[2] = tested on: Hexb^−/− mouse (Sandhoff disease model); test: Bar crossing test; format: in vivo
Excerpt: This study made use of a mouse model of Sandhoff disease, the Hexb^−/− mouse, as described in Jeyakumar et al. (Jeyakumar, M. et al. (1999) Proc. Natl. Acad. Sci. USA 96: 6388-6393). The bar crossing test is a method for assessing motor function in mice in which the mouse is placed hanging from the centre of a horizontal bar by its front limbs. A wild-type mouse with normal motor function will be able to engage its hind limbs and thereby move to one of the platforms at either end of the bar, and in doing so complete the test. […] In FIG. 7B, acetyl-leucine treatment of 0.1 g/kg body weight was provided from 3 weeks of age. The acetyl-leucine treated Sandhoff mice retained the ability to complete the test up to 13 weeks of age (inclusive). Data shown is the mean of 6 mice per group. The treated Sandhoff mice retained the ability to complete the test up to 13 weeks of age (inclusive).

[3] = tested on: patients with amyotrophic lateral sclerosis (ALS); test: Case studies, medical examination; format: in vivo, human
Excerpt: The results were documented by video.

[4] = tested on: patient with oligosymptomatic MSA-C; test: Gait analysis; format: in vivo, human; settings: Ex. 8 Patient 3, MSA-C; 3 then 5 gram per day; after one month
Protocol: After one month of treatment, a further examination was carried out.
Treatment was again suspended and the patient was evaluated three weeks later.

[5] = tested on: patient with corticobasal syndrome; test: Case study, clinical examination; format: in vivo, human
Protocol: Gait analysis was performed before treatment commenced. After 20 days of acetyl-leucine treatment, the patient was re-examined. […] After 8 weeks of acetyl-leucine treatment, medication was stopped and the patient was re-examined 6 days later.

[6] = tested on: patient with downbeat nystagmus; test: Gait analysis; format: in vivo, human; settings: Ex. 12 Patient 2
Excerpt: Medication was then suspended. About one month after stopping acetyl-DL-leucine treatment, the patient's symptomatology worsened.

[7] = tested on: patients with multiple system atrophy Parkinson type (MSA-P); test: Case studies, clinical examination; format: in vivo, human
Excerpt: Medication was stopped. […] The patient evaluated after one month on acetyl-DL-leucine. […] Episodes of mental confusion completely disappeared. The patient's cognitive structure seemed much clearer and straighter. […] The patient's spouse supported continuing the medication.

[8] = tested on: patient with Lewy Body dementia; test: Case study, clinical evaluation; format: in vivo, human; settings: Ex. 17, Lewy Body dementia; 3 g/day one week, 5 g/day thereafter; after four weeks
Protocol: The patient started taking acetyl-leucine (3 g/day for one week; 5 g/day thereafter) and was evaluated after four weeks. […] Medication was reduced to 3 g/day, and the patient was instructed to stop medication about two weeks later.

NPC patients = test: Clinical severity score (CSS) and annual severity increment score (ASIS); format: in vivo, human; settings: ten NPC patients, 4.5 g/day
Excerpt: An NPC patient's severity may be quantified by assigning a clinical severity score (CSS), which assesses various parameters of the disease and gives each parameter a score out of 5 (higher score=greater severity). See Yanjanin et al., “Linear Clinical Progression, Independent of Age of Onset, in Niemann-Pick Disease, Type C,” Am J Med Genet Part B 153B:132-140. In an untreated patient, one can typically predict how the CSS will change over time in an individual, as disease progression appears to be linear. For example, if Patient A moves from a CSS of 8 to a CSS of 12 between month 0 and month 12, it can be predicted that by month 36, the patient will have a CSS of 20. The annual severity increment score (ASIS) quantities the annual rate of change in the CSS, calculated by dividing the CSS of a patient by the patient's age. […]
Ten NPC patients were administered acetyl-leucine at 4.5 g/day over long durations. A CSS was determined at baseline, and at various time points, for eye movement, ambulation, speech, swallow, fine motor skills, cognition, memory, and seizures. An overall CSS was calculated at baseline and at each such time point by adding the individual CSS values for each parameter (eye movement, ambulation, etc.).
The ASIS at baseline and each time point was calculated using each patient's CSS and age at the time of assessment. […]

[9] = Ex. 7 Patient 1, ALS, after a further 20 days

For `CC(=O)NC(CC(C)C)C(=O)O` (racemic) [acetyl-DL-leucine], the “LysoTracker fluorescence (lysosomal volume)” value [1] was “statistically significant reduction in LysoTracker fluorescence”, the “age up to which the ability to complete the bar crossing test was retained” value ([2]; Sandhoff mice, 0.1 g/kg from 3 weeks of age, inclusive) was “up to 13 weeks of age” and the “motor function in bar-crossing test” value ([2]; Sandhoff mouse, 0.1 g/kg body weight from 3 weeks of age) was “improved motor function and hind-limb mobility/engagement”. For the same compound, the speech ([3]; Ex. 7 Patient 1, ALS, 3 then 5 gram per day, after 15 days) was “significant improvement of speech”, the “speech after stopping treatment” value ([3]; Ex. 7 Patient 1, ALS, about 7 days plus 1-2 additional weeks off treatment) was “deterioration of speech” and the “paresis of the right foot-dorsiflexors and foot drop” value [3, 9] was “improved dramatically and were clinically hardly detectable”. The sleep [3, 9] was “improvement in sleep”, the speech [3, 9] was “further improvement of speech” and the “symptomatology after resuming treatment” value ([3]; Ex. 7 Patient 1, ALS, resumed after second discontinuation) was “improved symptomatology, in particular speech”. For the same compound, the symptoms on re-examination ([3]; Ex. 7 Patient 2, ALS, 3 then 5 g per day, after approximately 2 months) was “progredient deterioration of the motor function of the left hand, but a discrete improvement of walking”, the symptomatology ([3]; Ex. 7 Patient 3, ALS, 3 then 5 g per day, after one month) was “did not report improvement of symptomatology” and the symptomatology ([3]; Ex. 7 Patient 4, ALS, 3 then 5 g per day, after about one month) was “subjective improvement of dysphagia and less hypersalivation”. For the same compound, the symptomatology after suspension ([3]; Ex. 7 Patient 4, ALS, 10 days after therapy was suspended) was “worsening of symptomatology”, the “gait analysis, summary” value [4] was “improvement of gait speed, and reductions of track width and gait fluctuations” and the dizziness and falls ([5]; Ex. 10, corticobasal syndrome, 3 then 5 g per day, after 20 days) was “improvement of dizziness symptoms and significant reduction in the frequency of falls”. For the same compound, the symptoms after suspension ([5]; Ex. 10, medication stopped after 8 weeks) was “increase of dizziness symptoms two days after suspension of treatment”, the self-chosen velocity ([6]; about one month after stopping treatment, decrease from 85) was 72 cm/s and the self-chosen velocity ([6]; on treatment, increase from 56) was 85 cm/s. The symptoms ([7]; Ex. 13 Patient 1, MSA-P, 3 g/day first week, 5 g/day thereafter, after 3 weeks) was “no significant improvement of gait, reduction of falls or improved hypokinetic rigid-syndrome”, the symptoms ([7]; Ex. 13 Patient 2, MSA-P, 3 then 5 g per day, after one month) was “subjective improvement of dizziness” and the cognitive function ([7]; Ex. 13 Patient 3, MSA-P, 3 then 5 g per day, after one month, reported by the patient's spouse) was “significant improvement of cognitive function”. The gait function ([7]; Ex. 13 Patient 3, MSA-P, after one month) was “no improvement of gait function”, the patient-reported symptoms [8] was “increased fatigue and a deterioration of balance and speech” and the “change of ASIS relative to baseline” value (NPC patients) was “all ten patients showed a reduction in ASIS”. The “change of overall CSS over the course of the experiment” value (NPC patients) was “none of the ten patients showed an overall increase in CSS”.
